Measured values from BindingDB's records for doi:10.1021/jm990229t (Ariad Pharmaceuticals, 1999).

Key:
[1] = target: T1, Tyrosine-protein kinase ZAP-70 (Homo sapiens, UniProt P43403); assay: Competitive Binding Assay; conditions: pH 7.4; 22 °C
T1 sequence (P43403 whole entry): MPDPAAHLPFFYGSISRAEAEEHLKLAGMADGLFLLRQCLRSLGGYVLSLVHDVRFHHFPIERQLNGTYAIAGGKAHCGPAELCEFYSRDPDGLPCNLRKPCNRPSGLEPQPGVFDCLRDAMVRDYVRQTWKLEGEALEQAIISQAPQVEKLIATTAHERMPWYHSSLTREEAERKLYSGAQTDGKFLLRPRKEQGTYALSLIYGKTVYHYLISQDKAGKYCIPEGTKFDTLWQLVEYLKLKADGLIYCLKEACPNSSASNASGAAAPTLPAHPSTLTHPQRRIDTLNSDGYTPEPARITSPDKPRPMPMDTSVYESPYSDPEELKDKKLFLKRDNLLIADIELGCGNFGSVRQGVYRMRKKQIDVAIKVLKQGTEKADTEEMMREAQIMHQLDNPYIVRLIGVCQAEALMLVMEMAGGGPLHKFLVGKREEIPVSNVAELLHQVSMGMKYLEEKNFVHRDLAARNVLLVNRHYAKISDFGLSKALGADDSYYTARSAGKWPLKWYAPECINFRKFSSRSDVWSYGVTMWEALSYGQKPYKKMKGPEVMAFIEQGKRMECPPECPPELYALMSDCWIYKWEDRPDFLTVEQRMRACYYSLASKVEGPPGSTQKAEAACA
Method: (§1) Fluorescence polarization competitive binding assays were used to measure the IC50s of compounds binding to the different SH2 domains. The difference in polarization values of fluorescein-conjugated peptide reflects the bound and unbound state of the probe. IC50s were calculated based on the binding of the fluorescein-conjugated peptide to the protein with compound addition relative to vehicle-alone control samples.

[2] = target: Proto-oncogene tyrosine-protein kinase Src (Homo sapiens, UniProt P12931); assay: Competitive Binding Assay; conditions: pH 7.4; 22 °C
Sequence of Proto-oncogene tyrosine-protein kinase Src (P12931 2-536 limits assumed): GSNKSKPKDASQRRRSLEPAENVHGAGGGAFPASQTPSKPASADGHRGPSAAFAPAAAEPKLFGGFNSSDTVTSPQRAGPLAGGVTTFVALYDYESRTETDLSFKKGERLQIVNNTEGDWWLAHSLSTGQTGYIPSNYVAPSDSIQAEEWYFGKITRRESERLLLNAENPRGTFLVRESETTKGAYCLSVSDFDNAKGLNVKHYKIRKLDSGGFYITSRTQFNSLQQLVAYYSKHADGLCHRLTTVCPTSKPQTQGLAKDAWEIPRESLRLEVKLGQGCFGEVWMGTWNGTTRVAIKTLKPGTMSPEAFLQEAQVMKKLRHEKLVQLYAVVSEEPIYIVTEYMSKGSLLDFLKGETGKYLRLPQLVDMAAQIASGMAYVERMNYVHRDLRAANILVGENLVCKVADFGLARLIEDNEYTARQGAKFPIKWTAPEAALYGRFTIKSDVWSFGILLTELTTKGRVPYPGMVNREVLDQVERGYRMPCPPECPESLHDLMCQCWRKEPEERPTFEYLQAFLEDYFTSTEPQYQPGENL
Method: as §1

## CC(=O)N[C@@H](Cc1ccc(OP(=O)(O)O)cc1)C(=O)N[C@@H](CCC(N)=O)c1nc(Cc2c(C)cc(C)cc2C)no1 [4-[(2S)-2-{[(1S)-3-carbamoyl-1-{3-[(2,4,6-trimethylphenyl)methyl]-1,2,4-oxadiazol-5-yl}propyl]carbamoyl}-2-acetamidoethyl]phenoxyphosphonic acid]
[1]
  IC50: > 500 µM
[2]
  IC50: 312 µM
